In US20200121645A1, “COMPOSITION FOR PREVENTING OR TREATING EGFR-MUTANT NON-SMALL CELL LUNG CANCER” (THE ASAN FOUNDATION, priority 2018, published 2020):

Key:
[1] = test system: EGFR in EGFR-mutant NSCLCs; assay: Western blot of EGFR levels, EGFR signaling and PARP/caspase-3 cleavage; type: cell-based; details: for EGFR levels / EGFR signaling (AKT and ERK phosphorylation) / PARP and caspase-3 cleavage (apoptosis markers): EGFR-mutant NSCLCs, immunoblot
Description: (§1) Cells were lysed in RIPA lysis buffer containing protease inhibitor cocktail (Thermo Scientific, Waltham, Mass., USA); lysate concentrations were assayed using a BCA assay (Thermo Scientific). Equal amounts of lysates were mixed with Laemmli loading dye and boiled for 10 minutes. Lysates were subjected to SDS-PAGE, and separated proteins were transferred to PVDF membranes (EMD Millipore, Billerica, Mass., USA). Membranes were blocked in Tris-buffered saline (TBS) containing 5% nonfat dry milk and 0.1% Tween 20 (TBS-T) prior to overnight incubation with primary antibody at 4° C. After washing with TBS-T, blots were exposed to appropriate horseradish peroxidase-conjugated secondary antibodies for 1 hour. Proteins-antibody complexes were visualized on Kodak X-ray film using an enhanced chemiluminescence (ECL) detection system (Thermo Scientific, Waltham, Mass., USA).

[2] = test system: EGFR-mutant NSCLCs (PC9 and H1975); assay: Apoptotic cell death by Annexin V/PI staining and flow cytometry; type: cell-based; details: for rescue from glucose deprivation-induced apoptosis: glucose-free medium, 24 h, SP600125 15 μM; for apoptotic cell death: EGFR-mutant NSCLCs, 24 h treatment
Description: (§2) Apoptotic cell death was detected using an Annexin-V/FITC assay. Cells were harvested by trypsinization, washed with PBS, and resuspended in Annexin-V binding buffer (10 mM HEPES, pH 7.4, 140 mM NaCl, 2.5 mM CaCl2) containing Annexin-V FITC and propidium iodide. Stained cells were quantified and analyzed on a flow cytometer (BeckmanCoulter, Brea, Calif., USA).

PC9 cells [3] = assay: Quantitation of intracellular ATP; type: cell-based; details: MPYR or AKG 7 mM, 24 h
Description: Intracellular ATP concentrations were measured using an ATP Colorimetric/Fluorometric Assay Kit (Biovision Incorporated, Milpitas, Calif., USA) according to the manufacturer's instructions. Briefly, cells were lysed in […] of ATP assay buffer; 50 μL of supernatants were collected and added to a 96-well plate. To each well, 50 μL of ATP assay buffer containing ATP probe, ATP converter, and developer were added. Absorbance was measured at 570 nm.

[4] = test system: JNK in EGFR-mutant NSCLCs; assay: Western blot for JNK and P-JNK; type: cell-based; details: for JNK activation (P-JNK): EGFR-mutant NSCLCs, immunoblot
Description: as §1

[5] = test system: EGFR-WT NSCLCs (A549 and H1299); assay: Apoptotic cell death by Annexin V/PI staining and flow cytometry; type: cell-based; details: 24 h treatment
Description: as §2

[6] = test system: PC-9/GR and PC-9/ER cells; assay: Apoptotic cell death by Annexin V/PI staining and flow cytometry in EGFR-TKI-resistant cells; type: cell-based; details: PC-9/GR and PC-9/ER cells (T790M), 24 h
Description: as §2

[7] = test system: PC9 and H1975 tumor cell xenografts; assay: Xenograft studies, tumor volume; type: in vivo, SCID mice; details: 2DG 500 mg/kg, intraperitoneal, 5 days a week for 2 weeks; compared with EGFR-WT (A549) xenografts
Description: Female severe combined immunodeficiency (SCID) mice were purchased from Charles River Laboratories. All experimental procedures were approved by the Institutional Animal Care and Use Committee of Asan Institute for Life Sciences (protocol 2015-14-241). For each animal, 2×10^6 cells mixed with Matrigel (BD Biosciences) were injected into the flank. Five mice per group were treated when the tumor volumes reached 50 to 100 mm^3 with anisomycin (5 mg/kg, intratumoral, 5 days a week) or 2-deoxy-D-glucose (2DG) 500 mg/kg, intraperitoneal, 5 days a week) for 2 weeks. The length (L) and width (W) of each tumor were measured using calipers, and the tumor volume (TV) was calculated as TV=(L×W^2)/2. To evaluate EGFR-related signaling in xenograft tumors, tumors were harvested after 3 days of drug treatment, lysed, and analyzed with Western blotting.

[8] = test system: PC-9/GR and PC-9/ER cells; assay: Western blot of JNK, EGFR signaling and apoptosis markers in EGFR-TKI-resistant cells; type: cell-based; details: 24 h
Description: as §1

PC9 cells [9] = assay: TCA metabolite pools by LC-MS/MS; type: cell-based; details: 2DG 10 mM or BPTES 10 μM
Description: Cells were grown to ˜60% confluence in growth media (RPMI1640, 10% FBS) on 10-cm dishes. After 24 hours, cells were harvested using 1.4 mL of cold methanol/H2O (80/20, v/v) after sequential PBS and H2O washes, and lysed; 100 μL of 5 μM internal standard was added. Metabolites were liquid-liquid extracted from the aqueous phase after adding chloroform. The aqueous phase was dried via vacuum centrifugation, and the sample was reconstituted with 50 μL of 50% methanol prior to LC/MS-MS analysis. The LC/MS-MS system was equipped with an Agilent 1290 HPLC (Agilent Technologies, Santa Clara, Calif., USA), Qtrap 5500 (ABSciex, Concord, Ontario, Canada), and reverse phase column (Synergi fusion RP 50×2 mm). A 3 μL volume was injected into the LC/MS-MS system and ionized with a turbo spray ionization source. Multiple reaction monitoring was used in negative ion mode, and the extracted ion chromatogram (EIC), corresponding to the specific transition for each metabolite was used for quantitation. The area under the curve of each EIC was normalized to that of the internal standard EIC. The peak area ratio of each metabolite to the internal standard was normalized using protein amount in a sample, and then was used for relative comparison.

EGFR-mutant NSCLCs [10] = assay: ROS quantification (DCFDA and MitoSox Red); type: cell-based; details: 2DG 10 mM or rotenone 5 μM, 24 h
Description: To determine cytoplasmic ROS, cells were incubated with 2′,7′-dichlorodihydrofluorescein diacetate (DCFDA, 5 μM; Invitrogen, Carlsbad, Calif., USA) for 30 minutes. Excess DCFDA was removed by washing cells twice with PBS at room temperature; labeled cells were trypsinized, rinsed, and resuspended in PBS. The oxidation of DCFDA to the highly fluorescent 2′,7′-dichloro-fluorescein (DCF), which is proportionate to ROS generation, was analyzed by flow cytometry. To analyze mitochondrial ROS, the cells were then incubated with 5 μM MitoSOX™ reagent (Thermo Scientific, Waltham, Mass., USA) for 10 minutes at 37° C. and trypsinized, washed with PBS, and then resuspended in 200 μL of PBS. Stained cells were then quantified and analyzed on a flow cytometer (BeckmanCoulter, Brea, Calif., USA). Excitation wavelength was 510 nm, and emission wavelength was 580 nm.

EGFR-mutant NSCLCs [11] = assay: Autophagy: LC3-II immunoblot and GFP-LC3 puncta; type: cell-based; details: 2DG 10 mM or anisomycin 5 μM, 24 h
Description: as §1

EGFR = EGFR transcriptional level; type: cell-based
Description: Total RNA was extracted using TRIzol (Invitrogen, Carlsbad, Calif., USA). cDNA was synthesized from 2 μg of total RNA, using oligo-dT and MMLV HP reverse transcriptase (Epicentre, Madison, Wis., USA) according to the manufacturer's instruction. qRT-PCR was performed on an AriaMax Real-Time PCR instrument (Agilent Technologies, Santa Clara, Calif., USA) using the SYBR detection protocol. cDNA was calculated by the comparative Ct method, with 18S ribosomal RNA as a control. PCR reactions were performed in triplicates.

[12] = test system: pentose phosphate pathway; assay: NADP+/NADPH ratios; type: cell-based; details: data not shown
[13] = test system: IGF1R and MET in EGFR-mutant NSCLCs; assay: Western blot of other receptor tyrosine kinases; type: cell-based; details: 2DG 10 mM, 24 h
Description: as §1

## CCN(CC)CCCC(C)Nc1ccnc2cc(Cl)ccc12 (centres unmarked) [chloroquine]
[1]; chloroquine 10 μM, 24 h
  PARP and caspase-3 cleavage upon glucose deprivation, 2DG, or anisomycin treatment: robustly inhibited
[1]; in the presence of chloroquine, 24 h
  reduction in EGFR levels caused by glucose deprivation, 2DG, or anisomycin treatment: dramatically inhibited

## O=C(O)CCC(=O)C(=O)O [α-ketoglutarate]
[2]; MPYR or AKG 7 mM, NAC 4 mM
  rescue from glucose deprivation-induced apoptosis: rescue EGFR-mutant NSCLCs from glucose deprivation-induced apoptosis
PC9 cells [3]
  recovery of ATP levels reduced by glucose deprivation: significant recovery of ATP levels

## OC[C@H]1O[C@H](O[C@H]2O[C@H](CO)[C@@H](O)[C@H](O)[C@H]2O)[C@H](O)[C@@H](O)[C@@H]1O [trehalose]
[1]
  EGFR levels: significantly induced EGFR degradation in a dose-dependent manner

## OO [H2O2, hydrogen peroxide]
[2]
  apoptotic cell death: activated apoptosis in EGFR-mutant NSCLCs in a dose-dependent manner
[1]
  EGFR levels: markedly reduced the EGFR levels
  EGFR signaling (AKT and ERK phosphorylation): inhibited the AKT and ERK phosphorylation
  PARP and caspase-3 cleavage (apoptosis markers): cleaved the PARP and caspase-3 in a dose-dependent manner
[4]
  JNK activation (P-JNK): activated JNK in a dose-dependent manner

## O=CC[C@@H](O)[C@H](O)[C@H](O)CO [2DG, 2-deoxy-D-glucose]
[5]
  apoptotic cell death: only in EGFR-mutant NSCLCs
[2]
  apoptotic cell death: promoted apoptosis
[6]
  apoptosis: significant induction of apoptosis
[7]
  tumor growth of xenografts: robustly diminished the growth
[1]
  EGFR levels: robust reduction of EGFR levels
  EGFR signaling (AKT and ERK phosphorylation): inhibition of EGFR signaling
  PARP and caspase-3 cleavage (apoptosis markers): leading to apoptosis
[1]; cells expressing ATG7 shRNAs, 2DG 10 mM or anisomycin 5 μM, 24 h
  EGFR levels upon ATG7 knockdown: did not reduce EGFR levels
[8]; 2DG 10 mM
  JNK activation: markedly activated JNK
[8]
  EGFR level, AKT and ERK phosphorylation, PARP and caspase-3 cleavage: EGFR level reduction, AKT and ERK phosphorylation inhibition, and PARP and caspase-3 cleavage
PC9 cells [9]
  levels of TCA cycle intermediates: significantly decreased
EGFR-mutant NSCLCs [10]
  cytoplasmic and mitochondrial ROS levels: significant increases
EGFR-mutant NSCLCs [11]
  LC3-II levels: significant increase in LC3-II levels
EGFR-mutant NSCLCs [11]; PC9 cells expressing GFP-LC3
  number of GFP-LC3 puncta: profoundly increased
EGFR
  EGFR transcriptional level: no significant effect
[12]
  NADP+/NADPH ratios: no significant effect
[13]
  IGF1R phosphorylation: significantly decreased
  MET phosphorylation: marginally decreased
  total form of IGF1R and MET: did not change

## C=C(C)[C@H]1Cc2c(ccc3c2O[C@@H]2COc4cc(OC)c(OC)cc4[C@@H]2C3=O)O1 [rotenone]
[2]
  apoptotic cell death: rotenone-mediated apoptosis
[1]
  EGFR levels: robustly decreased EGFR levels in both dose- and time-dependent manners
[4]
  JNK activation (P-JNK): significantly induced JNK activation in both dose- and time-dependent manners
EGFR-mutant NSCLCs [10]
  cytoplasmic and mitochondrial ROS levels: significant increases

## CC(=O)N[C@@H](CS)C(=O)O [NAC, N-acetyl-L-cysteine]
[2]; 2DG 10 mM, MPYR or AKG 7 mM, NAC 4 mM
  rescue from 2DG treatment-induced apoptotic cell death: significantly rescued cell death
[2]; anisomycin 24 h in absence or presence of NAC (FIG. 10a)
  rescue from anisomycin-induced cell death: did not rescue
[2]; MPYR or AKG 7 mM, NAC 4 mM
  rescue from glucose deprivation-induced apoptosis: significantly rescued cell death
[2]; rotenone 5 μM, methyl-pyruvate or NAC 4 mM
  rescue from rotenone-mediated apoptosis: significantly rescued cell death
[1]; NAC 4 mM, 24 h
  EGFR levels and AKT and ERK phosphorylation following glucose deprivation, 2DG, or rotenone treatment: significant recovery
  PARP and caspase-3 cleavage upon glucose deprivation, 2DG, or rotenone treatment: significantly inhibited
[1]; anisomycin with NAC (FIG. 10b)
  recovery of anisomycin-decreased EGFR signaling or EGFR levels: could not recover
[4]; NAC 4 mM, 24 h
  JNK activation induced by glucose deprivation, 2DG, or rotenone treatment: completely inhibited
[4]; anisomycin with NAC (FIG. 10c)
  inhibition of anisomycin-induced JNK activation: could not

## O=C(Cc1ccccc1)Nc1nnc(CCSCCc2nnc(NC(=O)Cc3ccccc3)s2)s1 [BPTES]
[1]
  EGFR signaling (AKT and ERK phosphorylation): had no effect on EGFR signaling
PC9 cells [9]
  levels of TCA cycle intermediates: no significant inhibitory effect
